Data reported in article PMC12491680 (Acta Pharmaceutica Sinica. B, 2025).

Columns and labels:
[1] = Acute toxicity of pure Gelsemium alkaloids in mice; details: both, Kunming, mouse, in vivo, ip, 30 mg/kg
[2] = type: in vivo, human; details: victim serum, UPLC-Q Exactive MS/MS
[3] = test system: gelsenicine (1)-poisoned mice; experiment: Antidote screening: survival of gelsenicine-poisoned mice; type: in vivo, Kunming mice; details: gelsenicine 0.22 mg/kg i.p.
[4] = cited from earlier work
mice = experiment: Respiratory function by whole-body plethysmography; type: in vivo, C57BL/6J mice; details: 0.22 mg/kg intraperitoneal
[5] = Detection of toxic alkaloids in mouse plasma after oral G. elegans extract; type: in vivo, Kunming mice; details: mice, oral G. elegans 95% ethanolic extract 200 mg/kg, blood 5 min after gavage
VRG neurons = experiment: Whole-cell recording of spontaneous action potentials in VRG neurons; type: cell-based, C57BL/6J mice
CA1 pyramidal neurons = experiment: Whole-cell recording in hippocampal CA1 pyramidal neurons; type: cell-based, C57BL/6J mice
[6] = Quantitative analysis of gelsenicine in medulla; type: in vivo, C57BL/6J mice; details: 1 mg/kg intraperitoneal

**Q.** With `C=C[C@@]12CN(C)[C@H]3C[C@]14C(=Nc1ccccc14)[C@@H]1C[C@@H]2[C@@H]3CO1` [Compound 32, koumine] as the compound, how does the LD50 at 7 days [1] read?
**A.** Its LD50 at 7 days is > 30 mg/kg.

**Q.** And the “Detection in the clinical blood sample” value [2]?
**A.** Its value is “could also be detected”.

**Q.** What does the source list for `CCC1(C)CC(=O)NC(=O)C1` [bemegride]?
**A.** Survival rate of poisoned mice ([3]; antidote 6.5 mg/kg i.p.): 30%; Time to peak concentration and passage into the brain [4]: ≤ 30 min

**Q.** What does the source list for `CCOC(=O)c1ncn2c1CN(C)C(=O)c1cc(F)ccc1-2` [flumazenil]?
**A.** Survival rate of poisoned mice ([3]; antidote 3 mg/kg i.p.): 50%; Time to peak level ([4]; oral or intravenous, clinical and animal studies): ≤ 5 min

**Q.** With `CCC1=N[C@H]2C[C@@]3(C(=O)N(OC)c4ccccc43)[C@H]3C[C@@H]1[C@@H]2CO3` [Compound 1, gelsenicine] as the compound, how does the “Time of death after administration” value ([3]; mice, no antidote) read?
**A.** Its value is “around 15 min”.

**Q.** And the LD50 at 7 days [1]?
**A.** The LD50 at 7 days was 0.14 mg/kg.

**Q.** And the “Time to severe respiratory distress after injection” value (mice)?
**A.** The value was 5 to 10 min.

**Q.** And the “Peak expiratory flow, peak inspiratory flow, frequency, tidal volume and minute ventilation” value (mice; vs saline)?
**A.** The value was “significant reduction”.

**Q.** And the Detection in plasma [5]?
**A.** Its Detection in plasma is “detected in the plasma”.

**Q.** And the “Decrease of action potential firing rate” value (VRG neurons; VRG neurons, 1 μmol/L)?
**A.** Its value is “about 60%”.

**Q.** And the “Decrease of action potential firing rate” value (VRG neurons; VRG neurons, 2 μmol/L)?
**A.** Its value is “about 70%”.

**Q.** And the “Effect on action potential firing” value (VRG neurons; VRG neurons, 0.3 and 0.6 μmol/L)?
**A.** Its value is “did not have an inhibitory effect”.

**Q.** And the “Effect on firing rate of picrotoxin-treated VRG neurons” value (VRG neurons; gelsenicine 1 μmol/L in the presence of picrotoxin 50 μmol/L)?
**A.** Its value is “did not affect the firing rate”.

**Q.** And the “Concentration at which action potentials were suppressed” value (CA1 pyramidal neurons; CA1 pyramidal neurons)?
**A.** The value was ≥ 5 µmol/L.

**Q.** And the “Effect on action potential firing” value (CA1 pyramidal neurons; CA1 pyramidal neurons, 1 and 2 μmol/L)?
**A.** The value was “failed to show an inhibitory effect”.

**Q.** What about the “Effect on miniature inhibitory synaptic currents (mIPSCs)” value (CA1 pyramidal neurons; hippocampus CA1 region, 5 μmol/L) of the same compound?
**A.** Its value is “increased the amplitude”.

**Q.** And the Distribution to medulla ([6]; C57BL/6 mice, 5 and 10 min)?
**A.** The Distribution to medulla was “quickly distributed to medulla at 5 min, and sustained until 10 min”.

**Q.** And the Time of death ([6]; mice)?
**A.** Its Time of death is “around 10 min”.

**Q.** What about the “Detection in the clinical blood sample” value [2] of the same compound?
**A.** Its value is “clearly detected”.

**Q.** For `C=C[C@]12CN(C)[C@@H]3[C@H]4CO[C@H](C[C@H]41)[C@]1(C(=O)Nc4ccccc41)[C@@H]32` [Compound 24, gelsemine], which “Detection in the clinical blood sample” value [2] is on record?
**A.** The value was “could also be detected”.

**Q.** For `O=C1C=C2C=C[C@@H]3C[C@@]2(O1)[C@H]1CCCCN31` [securinine], which “Survival rate of poisoned mice” value ([3]; antidote 3 mg/kg i.p.) is on record?
**A.** The value was 50%.

**Q.** What about the “Time to peak concentration in plasma” value ([4]; intraperitoneal injection) of the same compound?
**A.** The value was ≤ 9 min.

**Q.** What about the “Time to peak concentration in the brain” value ([4]; intraperitoneal injection) of the same compound?
**A.** The value was ≤ 30 min.

**Q.** For `C/C=C1\CN(C)[C@H]2C[C@@]3(C(=O)N(OC)c4ccccc43)[C@H]3C[C@@H]1[C@@H]2CO3` [Compound 17, humantenine], which LD50 at 7 days [1] is on record?
**A.** Its LD50 at 7 days is 7.11 mg/kg.

**Q.** What about the Detection in plasma [5] of the same compound?
**A.** Its Detection in plasma is “detected in the plasma”.

**Q.** And the “Detection in the clinical blood sample” value [2]?
**A.** The value was “clearly detected”.

**Q.** With picrotoxin [reference compound] as the compound, how does the “Effect on VRG neuron activity (firing rate vs baseline)” value (VRG neurons; picrotoxin 50 μmol/L alone) read?
**A.** Its value is “robust increase in activity”.

**Q.** With `CN1CCc2cc3c(cc2[C@H]1[C@@H]1OC(=O)c2c1ccc1c2OCO1)OCO3` [bicuculline, reference compound] as the compound, how does the “Effect on firing of VRG neurons inhibited by gelsenicine” value (VRG neurons; bicuculline 20 μmol/L after gelsenicine 1 μmol/L) read?
**A.** Its value is “restoring the normal firing rate”.
